Where two headings read alike, the source gives them in different places.
Assays:
[1] = target: TEL-PDGFRβ fusion gene transfected cells (Ba/F3); test: Suppression of proliferation of TEL-PDGFRβ fusion gene transfected Ba/F3 cells; format: cell-based, human; settings: TEL-PDGFRβ expressing Ba/F3 cells, 72 hours, final concentration 0.1 to 10,000 nM; read-out: PDGFR β/BaF3 proliferation inhibition (IC50)
Description: 2. Preparation of Test Substance
4. Analysis of Measurement Results

[2] = target: TEL-KIT fusion gene transfected cells (Ba/F3); test: Suppression of proliferation of TEL-KIT fusion gene transfected Ba/F3 cells; settings: read-out: KIT/BaF3 proliferation inhibition (IC50); TEL-KIT expressing Ba/F3 cells, 72 hours, final concentration 0.1 to 10,000 nM;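 further: viable cells quantified via formazan from tetrazolium reduction, inhibition scaled with 0.1% DMSO control as 0% and medium-only blank as 100%, IC50 from two-parameter logistic fit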
Description: Fabrication of TEL-PDGFRβ and TEL-KIT Fusion Gene Transfected Cells
Subsequently, the vectors for gene transfection were introduced using a transfection reagent (FuGENE6, Promega Corporation) into packaging cells derived from a human fetal kidney cell line, PLAT-E, in the logarithmic growth phase. Since the culture supernatant of PLAT-E after the gene transfection contained virus particles for gene transfection, it was collected and used as a medium for gene transfection. The medium for gene transfection was added to a plate coated with RetroNectin and incubated, and the virus particles were allowed to adhere to the plate. Thereafter, the mouse pro-B cell line Ba/F3 in the logarithmic growth phase was seeded onto the plate and infected with the virus to fabricate cells that proliferate in a PDGFRβ or KIT dependent manner.
The test substance was prepared with dimethyl sulfoxide (DMSO) to 10 mM and diluted with DMSO so as to reach a concentration of 0.0001 to 3 mM. Furthermore, it was diluted by 100 times with distilled water.
Measurement of Suppression Action Against Proliferation of TEL-PDGFRβ or TEL-KIT Expressing Cells
The day after TEL-PDGFRβ and TEL-KIT expressing cells were seeded onto 96 well plates, the prepared test substance solution was added thereto with a final concentration being 0.1 to 10,000 nM. After 72 hours, the viable cell count was measured using the amount of formazan generated from the reduction of a tetrazolium salt compound by the mitochondrial dehydrogenase of viable cells as an indicator.
Based on the amount of formazan in each condition, the suppression rate against cell proliferation was calculated when the amounts of formazan in the negative control (0.1% DMSO solution) and Blank (medium only) were defined as 0% and 100%, respectively. Subsequently, a nonlinear regression analysis with a two parameter logistic model for the log dose and suppression rate against cell proliferation was carried out using the SAS system (SAS Institute Inc.) to estimate the IC50 value.

[3] = system: pulmonary arterial smooth muscle cells; test: Suppression of proliferation of pulmonary arterial smooth muscle cells (PDGF-BB stimulation, BrdU); format: cell-based; settings: PASMC, read-out: Human normal PASMC proliferation suppression (PDGF stimulation_IC50)
Procedure, shortened: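 Test compound (final 3 to 10,000 nM) was added together with BrdU and PDGF-BB (final 10 ng/mL) to healthy human pulmonary artery smooth muscle cells held a day in 0.1% FBS. Proliferation was read after 1 day as anti-BrdU-detected BrdU incorporation.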

PDGFR-β = PDGFR-β (Homo sapiens (Human), UniProt P09619); test: PDGFR-β tyrosine kinase inhibitory action (HTRF KinEASE-TK); format: biochemical; settings: PDGFR-β enzyme 1 ng/μL, 30° C. for 30 minutes; read-out: PDGF-β IC50
Procedure, shortened: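 Recombinant PDGFR-β at 1 ng/μL final with TK substrate-3-biotin in a substrate solution containing 0.6 μM ATP; buffer 50 mM HEPES pH 7.0, 5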

[4] = 24 h, healthy human derived pulmonary arterial smooth muscle cells, human PDGF-BB 10 ng/mL stimulation, BrdU uptake after 1 day, test substance final concentration 3 to 10,000 nM
[5] = human PDGF-BB 10 ng/mL, BrdU uptake, final concentration 3 to 10,000 nM

TEL-KIT fusion gene transfected cells (Ba/F3), sequence (P10721 26-976 limits assumed, change not shown): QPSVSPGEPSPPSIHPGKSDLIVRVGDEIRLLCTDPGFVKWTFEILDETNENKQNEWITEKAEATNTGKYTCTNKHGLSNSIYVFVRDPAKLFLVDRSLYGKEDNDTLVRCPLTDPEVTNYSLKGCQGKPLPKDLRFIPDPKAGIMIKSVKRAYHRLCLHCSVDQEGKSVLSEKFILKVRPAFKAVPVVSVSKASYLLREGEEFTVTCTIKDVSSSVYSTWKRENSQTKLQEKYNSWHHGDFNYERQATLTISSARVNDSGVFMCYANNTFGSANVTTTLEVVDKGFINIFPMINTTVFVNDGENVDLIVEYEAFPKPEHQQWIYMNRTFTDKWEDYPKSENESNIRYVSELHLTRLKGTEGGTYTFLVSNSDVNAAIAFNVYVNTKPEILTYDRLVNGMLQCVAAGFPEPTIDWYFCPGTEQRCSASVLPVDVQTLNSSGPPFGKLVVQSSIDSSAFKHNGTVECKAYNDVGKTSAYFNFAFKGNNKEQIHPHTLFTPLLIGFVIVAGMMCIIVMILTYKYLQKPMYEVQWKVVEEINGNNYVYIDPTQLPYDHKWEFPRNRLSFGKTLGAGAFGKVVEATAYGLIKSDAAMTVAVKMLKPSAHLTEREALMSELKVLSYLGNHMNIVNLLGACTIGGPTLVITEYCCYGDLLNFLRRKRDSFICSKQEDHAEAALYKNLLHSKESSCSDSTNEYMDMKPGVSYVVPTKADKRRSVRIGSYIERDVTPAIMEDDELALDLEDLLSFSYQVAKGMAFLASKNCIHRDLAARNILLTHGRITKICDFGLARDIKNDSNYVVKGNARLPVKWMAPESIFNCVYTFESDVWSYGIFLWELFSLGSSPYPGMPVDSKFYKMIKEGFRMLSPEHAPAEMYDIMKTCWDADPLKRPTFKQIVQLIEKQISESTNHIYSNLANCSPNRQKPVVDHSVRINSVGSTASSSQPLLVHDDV
PDGFR-β, sequence (P09619 33-1106): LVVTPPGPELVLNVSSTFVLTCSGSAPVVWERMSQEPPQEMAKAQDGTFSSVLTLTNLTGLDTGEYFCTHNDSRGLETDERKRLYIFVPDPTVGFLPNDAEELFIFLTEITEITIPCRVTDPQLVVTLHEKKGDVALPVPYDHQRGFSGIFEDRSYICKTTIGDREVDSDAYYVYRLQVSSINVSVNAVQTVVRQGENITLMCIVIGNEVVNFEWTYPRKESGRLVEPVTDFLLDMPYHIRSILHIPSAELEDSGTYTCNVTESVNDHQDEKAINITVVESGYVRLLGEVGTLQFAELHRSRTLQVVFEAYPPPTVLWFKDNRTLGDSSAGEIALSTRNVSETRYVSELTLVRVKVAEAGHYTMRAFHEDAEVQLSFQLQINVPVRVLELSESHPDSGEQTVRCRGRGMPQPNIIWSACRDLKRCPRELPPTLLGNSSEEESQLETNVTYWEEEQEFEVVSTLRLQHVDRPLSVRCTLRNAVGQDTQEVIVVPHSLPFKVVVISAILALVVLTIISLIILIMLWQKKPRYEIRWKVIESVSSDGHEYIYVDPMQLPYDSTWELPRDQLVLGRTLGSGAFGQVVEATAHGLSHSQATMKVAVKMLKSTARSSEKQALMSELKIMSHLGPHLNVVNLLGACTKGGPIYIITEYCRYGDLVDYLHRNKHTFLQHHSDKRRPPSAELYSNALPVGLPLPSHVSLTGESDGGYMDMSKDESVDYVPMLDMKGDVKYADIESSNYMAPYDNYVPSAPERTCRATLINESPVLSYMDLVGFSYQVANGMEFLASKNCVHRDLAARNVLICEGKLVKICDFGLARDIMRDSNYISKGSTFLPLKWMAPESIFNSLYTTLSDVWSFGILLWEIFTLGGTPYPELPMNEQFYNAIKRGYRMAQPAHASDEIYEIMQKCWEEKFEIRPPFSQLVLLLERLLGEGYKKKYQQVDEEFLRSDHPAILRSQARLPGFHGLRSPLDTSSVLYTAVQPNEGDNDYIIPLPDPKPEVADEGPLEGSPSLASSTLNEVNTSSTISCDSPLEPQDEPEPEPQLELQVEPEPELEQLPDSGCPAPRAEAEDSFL
TEL-PDGFRβ fusion gene transfected cells (Ba/F3), sequence (P09619 33-1106 limits assumed, change not shown): as the sequence (P09619 33-1106) above

Compound Cc1ccc(C(=O)N[C@H]2CCCC[C@@H]2O)cc1C#Cc1cncc(-c2ncccn2)c1 [Example 62, N-[(1S,2S)-2-hydroxycyclohexyl]-4-methyl-3-{[5-(pyrimidin-2-yl)pyridin-3-yl]ethynyl}benzamide] has an IC50 [1] of 1.7 nM, an IC50 [2] of 87 nM and an IC50 [3, 4] of 34 nM. For the same compound, the IC50 (PDGFR-β) was 6.5 nM.
Compound Cc1ccc(C(=O)N[C@H]2CCCC[C@@H]2O)cc1NC(=O)c1cncc(-c2ccc(F)cc2F)c1 [Example 31, 5-(2,4-difluorophenyl)-N-(5-{[(1S,2S)-2-hydroxycyclohexyl]carbamoyl}-2-methylphenyl)pyridine-3-carboxamide] has an IC50 [1] of 8 nM, an IC50 [2] of 1000 nM and an IC50 [3, 4] of 100 nM. For the same compound, the IC50 (PDGFR-β) was 73 nM.
Compound Cc1ccc(C(=O)N[C@H]2CCCC[C@@H]2O)cc1CNc1cncc(-c2ncccn2)c1 [Example 147, N-[(1S,2S)-2-hydroxycyclohexyl]-4-methyl-3-({[5-(pyrimidin-2-yl)pyridin-3-yl]amino}methyl)benzamide] has an IC50 [1] of 5.6 nM, an IC50 [2] of 100 nM and an IC50 [3, 4] of 52 nM. For the same compound, the IC50 (PDGFR-β) was 24 nM.
Work on Cc1ccc(C(=O)N[C@H]2CCCC[C@@H]2O)cc1NC(=O)c1cncc(NCC2CC2)c1 [Example 16, 5-[(cyclopropylmethyl)amino]-N-(5-{[(1S,2S)-2-hydroxycyclohexyl]carbamoyl}-2-methylphenyl)pyridine-3-carboxamide] yielded an IC50 [1] of 130 nM, an IC50 [2] of 1300 nM and an IC50 [3, 5] of 81 nM. It also gave an IC50 (PDGFR-β) of 22 nM.
Compound Cc1ccc(C(=O)N[C@H]2CCCC[C@@H]2O)cc1COc1cncc(-c2ncccn2)c1 [Example 169, N-[(1S,2S)-2-hydroxycyclohexyl]-4-methyl-3-({[5-(pyrimidin-2-yl)pyridin-3-yl]oxy}methyl)benzamide] has an IC50 [1] of 4 nM, an IC50 [2] of 400 nM and an IC50 [3, 4] of 43 nM. It also gave an IC50 (PDGFR-β) of 52 nM.
With Cc1ccc(C(=O)N[C@H]2CCCC[C@@H]2O)cc1NC(=O)c1cncc(-c2cccc(Cl)c2)c1 [Example 11, 5-(3-chlorophenyl)-N-(5-{[(1S,2S)-2-hydroxycyclohexyl]carbamoyl}-2-methylphenyl)pyridine-3-carboxamide] the IC50 [1] was 13 nM, the IC50 [2] was 310 nM and the IC50 [3, 5] was 49 nM. For the same compound, the IC50 (PDGFR-β) was 17 nM.
Work on Cc1ccc(C(=O)N[C@H]2CCCC[C@@H]2O)cc1NCc1cnc2ccccc2c1 [Example 96, N-[(1S,2S)-2-hydroxycyclohexyl]-4-methyl-3-{[(quinolin-3-yl)methyl]amino}benzamide] yielded an IC50 [1] of 12 nM, an IC50 [2] of 310 nM and an IC50 [3, 4] of 72 nM. For the same compound, the IC50 (PDGFR-β) was 200 nM.
Cc1ccc(C(=O)N[C@H]2CCCC[C@@H]2O)cc1NC(=O)c1cnc(NCC2CC2)s1 [Example 8, 2-[(cyclopropylmethyl)amino]-N-(5-{[(1S,2S)-2-hydroxycyclohexyl]carbamoyl}-2-methylphenyl)-1,3-thiazole-5-carboxamide] gave an IC50 [1] of 9.7 nM, an IC50 [2] of 650 nM and an IC50 [3, 5] of 110 nM. The IC50 (PDGFR-β) was 6 nM.
With O=C(N[C@H]1CCCC[C@@H]1O)c1ccc(Cl)c(NCc2cncc(-c3ncccn3)c2)c1 [Example 104, 4-chloro-N-[(1S,2S)-2-hydroxycyclohexyl]-3-({[5-(pyrimidin-2-yl)pyridin-3-yl]methyl}amino)benzamide] the IC50 [1] was 3.4 nM, the IC50 [2] was 3400 nM and the IC50 [3, 4] was 38 nM. The IC50 (PDGFR-β) was 260 nM.
For Cc1ccc(C(=O)N[C@H]2CCCC[C@@H]2O)cc1NCc1cncc(-c2ccccc2)n1 [Example 101, N-[(1S,2S)-2-hydroxycyclohexyl]-4-methyl-3-{[(6-phenylpyrazin-2-yl)methyl]amino}benzamide], the IC50 [1] was 56 nM, the IC50 [2] was 9000 nM and the IC50 [3, 4] was 71 nM. For the same compound, the IC50 (PDGFR-β) was 170 nM.
With Cc1cncc(C#Cc2cc(C(=O)N[C@H]3CCCC[C@@H]3O)ccc2C)c1 [Example 59, N-[(1S,2S)-2-hydroxycyclohexyl]-4-methyl-3-[(5-methylpyridin-3-yl)ethynyl]benzamide] the IC50 [1] was 27 nM, the IC50 [2] was 500 nM and the IC50 [3, 4] was 93 nM. The IC50 (PDGFR-β) was 210 nM.
In the case of Cc1ccc(C(=O)N[C@@H](CO)[C@@H](O)c2ccccc2)cc1CNc1cncc(-c2ccccc2)c1 [Example 153, N-[(1S,2S)-1,3-dihydroxy-1-phenylpropan-2-yl]-4-methyl-3-{[(5-phenylpyridin-3-yl)amino]methyl}benzamide], the IC50 [1] is reported as 27 nM, the IC50 [2] is reported as 7000 nM and the IC50 [3, 4] is reported as 62 nM. It also gave an IC50 (PDGFR-β) of 88 nM.
COc1ccc(-c2cncc(NCc3cccc(NC(=O)N[C@@H]4CCCC[C@@H]4O)c3)n2)cc1OC [Example 158, N-[3-({[6-(3,4-dimethoxyphenyl)pyrazin-2-yl]amino}methyl)phenyl]-N′-[(1R,2S)-2-hydroxycyclohexyl]urea] was tested, and the IC50 [1] was 41 nM, the IC50 [2] was 3000 nM and the IC50 [3, 4] was 22 nM. For the same compound, the IC50 (PDGFR-β) was 26 nM.
Cc1c(F)cc(C(=O)N[C@H]2CCCC[C@@H]2O)cc1Nc1cccc(-c2cccnc2)n1 [Example 81, 3-[([2,3′-bipyridin]-6-yl)amino]-5-fluoro-N-[(1S,2S)-2-hydroxycyclohexyl]-4-methylbenzamide] showed an IC50 [1] of 140 nM, an IC50 [2] of 3300 nM and an IC50 [3, 4] of 110 nM. It also gave an IC50 (PDGFR-β) of 190 nM.
Cc1ccc(C(=O)N[C@H]2CCCC[C@@H]2O)cc1NCc1cncc(C#CC2(O)CC2)c1 [Example 97, N-[(1S,2S)-2-hydroxycyclohexyl]-3-[({5-[(1-hydroxycyclopropyl)ethynyl]pyridin-3-yl}methyl)amino]-4-methylbenzamide] showed an IC50 [1] of 20 nM, an IC50 [2] of 1900 nM and an IC50 [3, 4] of 160 nM. For the same compound, the IC50 (PDGFR-β) was 100 nM.
Cc1ccc(C(=O)N[C@H]2CCCC[C@@H]2O)cc1NC(=O)c1cncc(-c2cc(F)c(F)c(F)c2)c1 [Example 42, N-(5-{[(1S,2S)-2-hydroxycyclohexyl]carbamoyl}-2-methylphenyl)-5-(3,4,5-trifluorophenyl)pyridine-3-carboxamide] was tested, and the IC50 [1] was 41 nM, the IC50 [2] was 7900 nM and the IC50 [3, 4] was 95 nM. It also gave an IC50 (PDGFR-β) of 230 nM.
For Cc1ccc(C(=O)N[C@H]2CCCC[C@@H]2O)cc1NCc1cnc2ccsc2c1 [Example 108, N-[(1S,2S)-2-hydroxycyclohexyl]-4-methyl-3-{[(thieno[3,2-b]pyridin-6-yl)methyl]amino}benzamide], the IC50 [1] was 2.3 nM, the IC50 [2] was 300 nM and the IC50 [3, 4] was 85 nM. It also gave an IC50 (PDGFR-β) of 51 nM.
CCC[C@@H](CO)NC(=O)c1ccc(C)c(NC(=O)c2cncc(-c3ccccc3)c2)c1 [Example 14, N-(5-{[(2S)-1-hydroxypentan-2-yl]carbamoyl}-2-methylphenyl)-5-phenylpyridine-3-carboxamide] gave an IC50 [1] of 11 nM, an IC50 [2] of 330 nM and an IC50 [3, 5] of 48 nM. For the same compound, the IC50 (PDGFR-β) was 40 nM.
Work on Cc1ccc(C(=O)N[C@H]2CCCC[C@@H]2O)cc1NC(=O)c1cncc(-c2ccc(Cl)cc2)c1 [Example 9, 5-(4-chlorophenyl)-N-(5-{[(1S,2S)-2-hydroxycyclohexyl]carbamoyl}-2-methylphenyl)pyridine-3-carboxamide] yielded an IC50 [1] of 22 nM, an IC50 [2] of 530 nM and an IC50 [3, 5] of 46 nM. It also gave an IC50 (PDGFR-β) of 26 nM.
Cc1ccc(C(=O)N[C@H]2CCCC[C@@H]2O)cc1C#Cc1cncc(-c2ccccc2F)n1 [Example 69, 3-{[6-(2-fluorophenyl)pyrazin-2-yl]ethynyl}-N-[(1S,2S)-2-hydroxycyclohexyl]-4-methylbenzamide] showed an IC50 [1] of 5.8 nM, an IC50 [2] of 330 nM and an IC50 [3, 4] of 61 nM. For the same compound, the IC50 (PDGFR-β) was 25 nM.
For Cc1ccc(C(=O)N[C@H]2CCCC[C@@H]2O)cc1NC(=O)c1cncc(-c2ccc(C(F)(F)F)cc2)c1 [Example 21, N-(5-{[(1S,2S)-2-hydroxycyclohexyl]carbamoyl}-2-methylphenyl)-5-[4-(trifluoromethyl)phenyl]pyridine-3-carboxamide], the IC50 [1] was 60 nM, the IC50 [2] was 2000 nM and the IC50 [3, 5] was 140 nM. For the same compound, the IC50 (PDGFR-β) was 73 nM.
Work on O=C(N[C@H]1CCCC[C@@H]1O)c1ccc(Cl)c(C#Cc2cncc(-c3ncccn3)c2)c1 [Example 64, 4-chloro-N-[(1S,2S)-2-hydroxycyclohexyl]-3-{[5-(pyrimidin-2-yl)pyridin-3-yl]ethynyl}benzamide] yielded an IC50 [1] of 5.9 nM, an IC50 [2] of 230 nM and an IC50 [3, 4] of 92 nM. For the same compound, the IC50 (PDGFR-β) was 260 nM.
Compound Cc1ccc(C(=O)N[C@H]2CCCC[C@@H]2O)cc1NCc1cnn(-c2ccccn2)c1 [Example 112, N-[(1S,2S)-2-hydroxycyclohexyl]-4-methyl-3-({[1-(pyridin-2-yl)-1H-pyrazol-4-yl]methyl}amino)benzamide] has an IC50 [1] of 1.3 nM, an IC50 [2] of 250 nM and an IC50 [3, 4] of 26 nM. It also gave an IC50 (PDGFR-β) of 39 nM.
Compound Cc1ccc(C(=O)N[C@H]2CCCC[C@@H]2O)cc1NCc1cnn2ccsc12 [Example 105, N-[(1S,2S)-2-hydroxycyclohexyl]-4-methyl-3-{[(pyrazolo[5,1-b][1,3]thiazol-7-yl)methyl]amino}benzamide] has an IC50 [1] of 4.7 nM, an IC50 [2] of 920 nM and an IC50 [3, 4] of 28 nM. The IC50 (PDGFR-β) was 230 nM.
Compound Cc1ccc(C(=O)N[C@H]2CCCC[C@@H]2O)cc1CNc1cncc(-c2ccccn2)c1 [Example 148, 3-{[([2,3′-bipyridin]-5′-yl)amino]methyl}-N-[(1S,2S)-2-hydroxycyclohexyl]-4-methylbenzamide] has an IC50 [1] of 2.4 nM, an IC50 [2] of 170 nM and an IC50 [3, 4] of 110 nM. For the same compound, the IC50 (PDGFR-β) was 16 nM.

Reference: patent publication US12509424B2, “Compound and composition as PDGF receptor kinase inhibitor” (NIPPON SHINYAKU CO., LTD., priority 2019, dated 2025)
